Laboratory results published in patent US20230120142A1, “COMPOSITIONS AND METHODS FOR THE TREATMENT OF INTRACELLULAR BACTERIAL INFECTIONS” (Endolytix Technology, Inc., priority 2020, published 2023).

Each compound was assayed on M. abscessus cells (assay: Cell growth assay of ABIα plus antibiotic, Fractional Inhibitory Concentration (FIC) index). Conditions: antibiotic in combination with ABIα cocktail; FIG. 5.
Type: cell-based, Mycobacterium abscessus

SMILES	interaction by Fractional Inhibitory Concentration (FIC) index on attenuation of M. abscessus growth
NCC[C@H](O)C(=O)N[C@@H]1C[C@H](N)[C@@H](O[C@H]2O[C@H](CN)[C@@H](O)[C@H](O)[C@H]2O)[C@H](O)[C@H]1O[C@H]1O[C@H](CO)[C@@H](O)[C@H](N)[C@H]1O [amikacin]	synergistic effects
C[C@@H](O)[C@H]1C(=O)N2C(C(=O)[O-])=C(SC3Cn4cnc[n+]4C3)[C@H](C)[C@H]12 (stereo partly drawn) [biapenem]	synergistic effects
CO[C@@]1(NC(=O)Cc2cccs2)C(=O)N2C(C(=O)O)=C(COC(N)=O)CS[C@@H]21 [cefoxitin]	synergistic effects
